Values of other authors as cited in patent US10166225B2, “Method for treating osteoporosis” (Exelixis, Inc., priority 2011, dated 2019).

Details: patients with metastatic castration resistant prostate cancer, regardless of prior bisphosphonates; cited from earlier work

COc1cc2nccc(Oc3ccc(NC(=O)C4(C(=O)Nc5ccc(F)cc5)CC4)cc3)c2cc1OC [Compound 1, N-(4-{[6,7-bis(methyloxy)quinolin-4-yl]oxy}phenyl)-N′-(4-fluorophenyl)cyclopropane-1,1-dicarboxamide]
plasma CTx: decrease
